Test results published in BindingDB's records for doi:10.7270/Q2X34VZF (Burnham Center For Chemical Genomics, 2011).

Biological target: Phospholipase A2 (Homo sapiens, UniProt P04054)
Assay: phospholipase A2 activity inhibition – biochemical, set 2, counter-screen for ATG4B inhibitor project, dose response (AID 588586)

Sequence of Phospholipase A2 (P04054 whole entry): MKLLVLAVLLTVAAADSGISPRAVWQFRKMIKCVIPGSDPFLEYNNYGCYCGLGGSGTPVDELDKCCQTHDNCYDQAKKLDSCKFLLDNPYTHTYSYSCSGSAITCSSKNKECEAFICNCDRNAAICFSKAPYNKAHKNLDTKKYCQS

IC50 | SMILES
2.47 µM | Oc1ccc2ccccc2c1CN=Nc1nnc(-c2ncc[nH]2)c2ccccc12 [SMR000151639]
10.5 µM | CC1=CC(/C=N/n2c(COc3ccccc3)nc3ccccc3c2=O)C(=O)C([N+](=O)[O-])=C1 (stereo not drawn) [3-[[(E)-(3-methyl-5-nitro-6-oxocyclohexa-2,4-dien-1-ylidene)methyl]amino]-2-(phenoxymethyl)quinazolin-4-one]
22.3 µM | Cc1ccc(NC2=NC(=O)C(=Cc3c(C)[nH]c4ccccc34)S2)cc1 [5-[(2-methyl-1H-indol-3-yl)methylene]-2-[(4-methylphenyl)imino]-1,3-thiazolidin-4-one]
